From patent US12162858B2, “Quinoline derivatives as inhibitors of AXL/MER RTK and CSF1R” (QURIENT CO., LTD., priority 2018, dated 2024) come the findings set out here.

For the assay, the target named is CSF1R (Homo sapiens, UniProt P07333). Description: KINOMEscan competition binding assay for CSF1R. Details: DNA tag for qPCR (not a peptide); host or cells: E. coli/T7 phage or HEK-293. To be noted: @ 0.1 uM. In outline:
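Values are either % inhibition at 0.1 uM, relative to DMSO (100% Ctrl) and a control compound (0% Ctrl), or Kd from an 11-point 3-fold series fitted with Hill slope −1. DNA-tagged kinase binds immobilized ligand beads with compound for 1 h at room temperature, and eluted kinase is measured by qPCR.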

Where [1] appears, read: read-out: CSF1R kinase binding activity, Percent (%) inhibition.
Where [2] appears, read: read-out: CSF1R kinase binding activity, Range.

Each structure is given as a SMILES string. Like-named read-outs stand apart in the source and are kept apart here.

Chain of CSF1R (P07333 20-972): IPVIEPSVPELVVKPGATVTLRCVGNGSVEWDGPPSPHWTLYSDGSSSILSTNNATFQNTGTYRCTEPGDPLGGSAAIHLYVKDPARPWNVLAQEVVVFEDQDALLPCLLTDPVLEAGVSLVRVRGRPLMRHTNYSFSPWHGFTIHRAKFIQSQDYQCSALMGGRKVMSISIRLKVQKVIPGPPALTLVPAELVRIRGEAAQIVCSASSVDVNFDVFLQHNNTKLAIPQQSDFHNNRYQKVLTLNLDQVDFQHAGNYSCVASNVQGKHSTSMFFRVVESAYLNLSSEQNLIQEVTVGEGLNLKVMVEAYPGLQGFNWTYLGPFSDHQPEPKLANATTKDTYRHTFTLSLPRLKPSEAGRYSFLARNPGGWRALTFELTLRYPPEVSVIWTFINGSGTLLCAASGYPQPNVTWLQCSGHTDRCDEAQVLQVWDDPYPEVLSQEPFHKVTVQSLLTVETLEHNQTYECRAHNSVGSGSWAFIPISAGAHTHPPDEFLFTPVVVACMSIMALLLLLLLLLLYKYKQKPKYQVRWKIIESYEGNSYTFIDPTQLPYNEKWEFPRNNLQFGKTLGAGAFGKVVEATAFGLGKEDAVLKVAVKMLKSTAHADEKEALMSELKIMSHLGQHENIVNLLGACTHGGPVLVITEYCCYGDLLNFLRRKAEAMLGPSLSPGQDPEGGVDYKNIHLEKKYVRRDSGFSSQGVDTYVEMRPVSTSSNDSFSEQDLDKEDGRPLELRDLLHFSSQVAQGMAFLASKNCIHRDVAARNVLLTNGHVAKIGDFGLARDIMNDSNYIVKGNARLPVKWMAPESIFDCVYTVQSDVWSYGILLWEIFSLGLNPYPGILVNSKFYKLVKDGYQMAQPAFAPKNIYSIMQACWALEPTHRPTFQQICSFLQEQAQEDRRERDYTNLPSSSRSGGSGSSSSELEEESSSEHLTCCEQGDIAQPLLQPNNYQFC

For `COc1cc2nccc(Oc3ccc(NC(=O)c4nn(CCO)cc4OCC(F)(F)F)cc3)c2cc1OC` [Compound 59], the inhibition at 0.1 µM was 82% under setting [1] and ≥ 80% under setting [2].
Turning to `COc1cc2nccc(Oc3ccc(NC(=O)c4nn(C5CCCC5)cc4OCC(F)(F)F)cc3)c2cc1OC` [Compound 60], the inhibition at 0.1 µM reads like this: under setting [1], 75%; under setting [2], 50 to 80%.
Taken in the same sequence, the figures for `COCCn1cc(OCC(F)(F)F)c(C(=O)Nc2ccc(Oc3ccnc4cc(OC)c(OC)cc34)cc2)n1` [Compound 61] were 76% and 50 to 80%.
Taken in the same sequence, the figures for `COc1cc2nccc(Oc3ccc(NC(=O)c4nn(C5CCOC5)cc4OCC(F)(F)F)cc3)c2cc1OC` (stereo not shown) [Compound 62] were 54% and 50 to 80%.
Taken in the same sequence, the figures for `COc1cc2nccc(Oc3ccc(NC(=O)c4nn(CC(C)N)cc4OCC(F)(F)F)nc3)c2cc1OC` (stereo not shown) [Compound 63] were 96% and ≥ 80%.
On to `COc1cc2nccc(Oc3ccc(NC(=O)c4nn(CC(C)(F)F)cc4OCC(F)(F)F)nc3)c2cc1OC` [Compound 64], for which the inhibition at 0.1 µM under setting [1] came out at 95% and the inhibition at 0.1 µM under setting [2] was ≥ 80%.
Consider `COc1cc2nccc(Oc3ccc(NC(=O)c4nn(CCOC5CCC5)cc4OCC(F)(F)F)nc3)c2cc1OC` [Compound 65], for which the inhibition at 0.1 µM is 96% under setting [1] and ≥ 80% under setting [2].
On the same counts, the results for `COc1cc2nccc(Oc3ccc(NC(=O)c4nn(C5COC5)cc4OCC(F)(F)F)nc3)c2cc1OC` [Compound 66] are 96% and ≥ 80%.
Take `COc1cc2nccc(Oc3ccc(NC(=O)c4nn(CCO)cc4OCC(F)(F)F)nc3)c2cc1OC` [Compound 67]: the inhibition at 0.1 µM was 96% under setting [1] and ≥ 80% under setting [2].
On the same counts, the results for `COc1cc2nccc(Oc3ccc(NC(=O)c4nn(CCCN)cc4OCC(F)(F)F)nc3)c2cc1OC` [Compound 68] are 98% and ≥ 80%.
On the same counts, the results for `COc1cc2nccc(Oc3ccc(NC(=O)c4nn(C5CCCCC5)cc4OCC(F)(F)F)nc3)c2cc1OC` [Compound 69] are 89% and ≥ 80%.
`COc1cc2nccc(Oc3ccc(NC(=O)c4nn(C5CCNC5)cc4OCC(F)(F)F)nc3)c2cc1OC` (stereo not shown) [Compound 70]: the inhibition at 0.1 µM reads like this: under setting [1], 79%; under setting [2], 50 to 80%.
On the same counts, the results for `COc1cc2nccc(Oc3ccc(NC(=O)c4nn(CC5CCCC5)cc4OCC(F)(F)F)nc3)c2cc1OC` [Compound 71] are 88% and ≥ 80%.
Taken in the same sequence, the figures for `COc1cc2nccc(Oc3ccc(NC(=O)c4nn(CC5CCNC5)cc4OCC(F)(F)F)nc3)c2cc1OC` (stereo not shown) [Compound 72] were 96% and ≥ 80%.
Take `COc1cc2nccc(Oc3ccc(NC(=O)c4nn(CC5CNC5)cc4OCC(F)(F)F)nc3)c2cc1OC` [Compound 73]: the inhibition at 0.1 µM is 97% under setting [1] and ≥ 80% under setting [2].
For the compound `COc1cc2nccc(Oc3ccc(NC(=O)c4nn(C5CCNC5)cc4OCC(F)(F)F)c(F)c3)c2cc1OC` (stereo not shown) [Compound 74], the inhibition at 0.1 µM reads like this: under setting [1], 39%; under setting [2], < 50%.
Turning to `COc1cc2nccc(Oc3ccc(NC(=O)c4nn(CCN)cc4OCC(F)(F)F)c(F)c3)c2cc1OC` [Compound 75], the inhibition at 0.1 µM is, setting by setting: under setting [1], 57%; under setting [2], 50 to 80%.
Taken in the same sequence, the figures for `COc1cc2nccc(Oc3ccc(NC(=O)c4nn(CC(C)O)cc4OCC(F)(F)F)c(F)c3)c2cc1OC` (stereo not shown) [Compound 76] were 94% and ≥ 80%.
With `COc1cc2nccc(Oc3ccc(NC(=O)c4nn(CCC(F)(F)F)cc4OCC4CCC4)nc3)c2cc1OC` [Compound 166], the inhibition at 0.1 µM reads like this: under setting [1], 84%; under setting [2], ≥ 80%.
Turning to `CCCn1cc(OCC2CCC2)c(C(=O)Nc2ccc(Oc3ccnc4cc(OC)c(OC(F)(F)F)cc34)cn2)n1` [Compound 167], the inhibition at 0.1 µM is, setting by setting: under setting [1], 0%; under setting [2], < 50%.
On the same counts, the results for `COc1cc2nccc(Oc3ccc(NC(=O)c4nn(CCNC5CC5)cc4OCC(F)(F)F)nc3)c2cc1OC` [Compound 168] are 95% and ≥ 80%.
On the same counts, the results for `COc1cc2nccc(Oc3ccc(NC(=O)c4nn(CC5CCN(C)C5)cc4OCC(F)(F)F)nc3)c2cc1OC` (stereo not shown) [Compound 169] are 93% and ≥ 80%.
With `COc1cc2nccc(Oc3ccc(NC(=O)c4nn(C5CC5)cc4OCCC(F)(F)F)nc3)c2cc1OC` [Compound 170], the inhibition at 0.1 µM under setting [1] was 90% and the inhibition at 0.1 µM under setting [2] is ≥ 80%.
Taken in the same sequence, the figures for `COCCOc1cn(C2CC2)nc1C(=O)Nc1ccc(Oc2ccnc3cc(OC)c(OC)cc23)nn1` [Compound 171] were 60% and 50 to 80%.
Taken in the same sequence, the figures for `COc1cc2nccc(Oc3ccc(NC(=O)c4nn(C5CC5)cc4OCC4CNC4)nn3)c2cc1OC` [Compound 172] were 36% and < 50%.
Taken in the same sequence, the figures for `COc1cc2nccc(Oc3ccc(NC(=O)c4nn(C5CC5)cc4OCCC(F)(F)F)nn3)c2cc1OC` [Compound 173] were 69% and 50 to 80%.
With `COc1cc2nccc(Oc3ccc(NC(=O)c4nn(CC(C)O)cc4OCC4CN(C)C4)nc3)c2cc1OC` (stereo not shown) [Compound 174], the inhibition at 0.1 µM is, setting by setting: under setting [1], 25%; under setting [2], < 50%.
On the same counts, the results for `COc1cc2nccc(Oc3ccc(NC(=O)c4nn(CC(C)O)cc4OCC(F)F)nc3)c2cc1OC` (stereo not shown) [Compound 175] are 97% and ≥ 80%.
Taken in the same sequence, the figures for `COc1cc2nccc(Oc3ccc(NC(=O)c4nc(CCC(F)(F)F)oc4CCC4CCC4)nc3)c2cc1OC` [Compound 176] were 40% and < 50%.
